{"source": "paper PMC5766581", "about": "“NF-κB inducing kinase is a therapeutic target for systemic lupus erythematosus” (Nature Communications, 2018)", "test_in_all_cases": "SelectScreen kinase panel", "format_in_all_cases": "biochemical", "key": {"[1]": {"molecular_target": "T1, Lyn (Homo sapiens, UniProt P07948)", "T1 construct": "purchased Invitrogen / ThermoFisher SelectScreen", "outline": "(§1)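 SelectScreen selectivity panel, vendor protocols per kinase: Z′-LYTE, Adapta, or LanthaScreen. Value = average % inhibition.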"}, "[2]": {"molecular_target": "T2, Blk (Homo sapiens, UniProt P51451)", "T2 construct": "purchased Invitrogen / ThermoFisher SelectScreen", "outline": "as §1"}, "[3]": {"molecular_target": "T3, GSK3_alpha (Homo sapiens, UniProt P49840)", "T3 construct": "purchased Invitrogen / ThermoFisher SelectScreen", "outline": "as §1"}, "[4]": {"molecular_target": "T4, Cot (Homo sapiens, UniProt P41279)", "T4 construct": "purchased Invitrogen / ThermoFisher SelectScreen", "outline": "as §1"}, "[5]": {"molecular_target": "T5, HIPK2 (Homo sapiens, UniProt Q9H2X6)", "T5 construct": "purchased Invitrogen / ThermoFisher SelectScreen", "outline": "as §1"}, "[6]": {"molecular_target": "T6, Bmx (Homo sapiens, UniProt P51813)", "T6 construct": "purchased Invitrogen / ThermoFisher SelectScreen", "outline": "as §1"}, "[7]": {"molecular_target": "T7, DYRK4 (Homo sapiens, UniProt Q9NR20)", "T7 construct": "purchased Invitrogen / ThermoFisher SelectScreen", "outline": "as §1"}, "[8]": {"molecular_target": "T8, Kit (Homo sapiens, UniProt P10721)", "T8 construct": "purchased Invitrogen / ThermoFisher SelectScreen", "outline": "as §1"}, "[9]": {"molecular_target": "T9, TYK2 (Homo sapiens, UniProt P29597)", "T9 construct": "purchased Invitrogen / ThermoFisher SelectScreen", "outline": "as §1"}, "[10]": {"molecular_target": "T10, BrSK1 (Homo sapiens, UniProt Q8TDC3)", "T10 construct": "purchased Invitrogen / ThermoFisher SelectScreen", "outline": "as §1"}, "[11]": {"molecular_target": "T11, IKK_alpha (Homo sapiens, UniProt O15111)", "T11 construct": "purchased Invitrogen / ThermoFisher SelectScreen", "T11 sequence (O15111 whole entry)": "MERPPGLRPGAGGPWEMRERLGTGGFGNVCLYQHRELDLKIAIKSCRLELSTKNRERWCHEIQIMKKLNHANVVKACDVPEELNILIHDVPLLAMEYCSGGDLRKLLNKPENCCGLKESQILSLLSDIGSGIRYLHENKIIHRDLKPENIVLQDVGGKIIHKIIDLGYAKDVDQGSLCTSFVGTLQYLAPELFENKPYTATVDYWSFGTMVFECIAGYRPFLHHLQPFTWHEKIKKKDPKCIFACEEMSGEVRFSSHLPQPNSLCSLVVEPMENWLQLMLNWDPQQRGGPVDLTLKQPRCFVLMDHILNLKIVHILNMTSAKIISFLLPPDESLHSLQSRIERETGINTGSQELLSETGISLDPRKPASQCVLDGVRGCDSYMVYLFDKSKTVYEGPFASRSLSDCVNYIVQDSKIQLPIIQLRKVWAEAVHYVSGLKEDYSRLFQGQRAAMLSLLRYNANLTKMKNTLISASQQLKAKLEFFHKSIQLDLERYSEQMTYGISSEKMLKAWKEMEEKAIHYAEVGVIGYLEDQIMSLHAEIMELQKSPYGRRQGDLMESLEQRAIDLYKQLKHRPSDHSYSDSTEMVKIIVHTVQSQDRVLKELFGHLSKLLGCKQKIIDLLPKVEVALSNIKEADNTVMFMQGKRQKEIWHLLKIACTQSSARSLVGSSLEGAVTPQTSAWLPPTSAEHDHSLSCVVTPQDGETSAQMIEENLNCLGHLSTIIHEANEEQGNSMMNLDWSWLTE", "outline": "as §1"}, "[12]": {"molecular_target": "T12, JAK2 (Homo sapiens, UniProt O60674)", "T12 construct": "purchased Invitrogen / ThermoFisher SelectScreen", "outline": "as §1"}, "[13]": {"molecular_target": "T13, SGK3 (Homo sapiens, UniProt Q96BR1)", "T13 construct": "purchased Invitrogen / ThermoFisher SelectScreen", "outline": "as §1"}, "[14]": {"molecular_target": "T14, eEF-2K (Homo sapiens, UniProt O00418)", "T14 construct": "purchased Invitrogen / ThermoFisher SelectScreen", "T14 sequence (O00418 whole entry)": "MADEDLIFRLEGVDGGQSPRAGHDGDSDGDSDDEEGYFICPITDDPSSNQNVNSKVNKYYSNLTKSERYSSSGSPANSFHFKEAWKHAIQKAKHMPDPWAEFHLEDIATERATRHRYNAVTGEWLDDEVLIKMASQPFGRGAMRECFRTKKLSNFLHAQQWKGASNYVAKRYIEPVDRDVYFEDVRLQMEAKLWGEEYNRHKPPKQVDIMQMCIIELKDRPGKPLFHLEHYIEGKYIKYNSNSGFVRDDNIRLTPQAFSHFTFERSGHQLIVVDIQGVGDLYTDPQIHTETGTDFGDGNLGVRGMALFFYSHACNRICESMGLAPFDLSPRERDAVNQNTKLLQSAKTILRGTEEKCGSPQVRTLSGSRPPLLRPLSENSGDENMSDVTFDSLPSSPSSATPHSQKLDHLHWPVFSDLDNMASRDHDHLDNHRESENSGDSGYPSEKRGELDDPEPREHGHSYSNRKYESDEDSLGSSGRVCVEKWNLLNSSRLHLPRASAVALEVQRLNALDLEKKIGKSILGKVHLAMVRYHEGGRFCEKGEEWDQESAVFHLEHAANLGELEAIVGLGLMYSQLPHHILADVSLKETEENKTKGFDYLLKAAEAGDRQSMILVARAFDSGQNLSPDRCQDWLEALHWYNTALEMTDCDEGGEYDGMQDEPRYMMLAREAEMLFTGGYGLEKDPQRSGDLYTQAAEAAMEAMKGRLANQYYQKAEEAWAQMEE", "outline": "as §1"}, "[15]": {"molecular_target": "T15, HIPK4 (Homo sapiens, UniProt Q8NE63)", "T15 construct": "purchased Invitrogen / ThermoFisher SelectScreen", "outline": "as §1"}, "[16]": {"molecular_target": "T16, RSK2 (Homo sapiens, UniProt P51812)", "T16 construct": "purchased Invitrogen / ThermoFisher SelectScreen", "T16 sequence (P51812 whole entry)": "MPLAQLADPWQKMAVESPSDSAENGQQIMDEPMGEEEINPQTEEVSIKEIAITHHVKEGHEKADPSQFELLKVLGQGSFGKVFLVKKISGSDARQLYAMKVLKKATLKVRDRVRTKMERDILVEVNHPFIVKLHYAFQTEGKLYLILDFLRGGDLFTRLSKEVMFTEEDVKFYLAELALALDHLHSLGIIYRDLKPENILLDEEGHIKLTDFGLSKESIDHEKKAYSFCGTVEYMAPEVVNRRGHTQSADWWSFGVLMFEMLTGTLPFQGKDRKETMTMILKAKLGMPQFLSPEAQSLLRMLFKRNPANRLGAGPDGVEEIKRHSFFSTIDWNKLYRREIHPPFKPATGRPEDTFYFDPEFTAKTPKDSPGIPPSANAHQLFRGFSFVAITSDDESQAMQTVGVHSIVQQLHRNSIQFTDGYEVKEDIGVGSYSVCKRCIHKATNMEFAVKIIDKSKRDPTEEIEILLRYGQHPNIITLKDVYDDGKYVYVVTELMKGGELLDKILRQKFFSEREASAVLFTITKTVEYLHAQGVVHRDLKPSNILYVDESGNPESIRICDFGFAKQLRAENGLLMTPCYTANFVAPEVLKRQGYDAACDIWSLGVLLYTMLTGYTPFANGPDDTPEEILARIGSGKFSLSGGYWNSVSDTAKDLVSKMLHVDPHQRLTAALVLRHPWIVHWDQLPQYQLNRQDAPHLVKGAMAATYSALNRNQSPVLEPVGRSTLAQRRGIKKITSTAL", "outline": "as §1"}, "[17]": {"molecular_target": "T17, Flt1 (Homo sapiens, UniProt P17948)", "T17 construct": "purchased Invitrogen / ThermoFisher SelectScreen", "outline": "as §1"}, "[18]": {"molecular_target": "T18, CHK2 (Homo sapiens, UniProt O96017)", "T18 construct": "purchased Invitrogen / ThermoFisher SelectScreen", "outline": "as §1"}, "[19]": {"molecular_target": "T19, GRK6 (Homo sapiens, UniProt P43250)", "T19 construct": "purchased Invitrogen / ThermoFisher SelectScreen", "outline": "as §1"}, "[20]": {"molecular_target": "T20, CamKII_alpha (Homo sapiens, UniProt Q9UQM7)", "T20 construct": "purchased Invitrogen / ThermoFisher SelectScreen", "outline": "as §1"}, "[21]": {"molecular_target": "T21, CK1_alpha1 (Homo sapiens, UniProt P48729)", "T21 construct": "purchased Invitrogen / ThermoFisher SelectScreen", "outline": "as §1"}, "[22]": {"molecular_target": "T22, ACVR1B (Homo sapiens, UniProt P36896)", "T22 construct": "purchased Invitrogen / ThermoFisher SelectScreen", "T22 sequence (P36896 24-505)": "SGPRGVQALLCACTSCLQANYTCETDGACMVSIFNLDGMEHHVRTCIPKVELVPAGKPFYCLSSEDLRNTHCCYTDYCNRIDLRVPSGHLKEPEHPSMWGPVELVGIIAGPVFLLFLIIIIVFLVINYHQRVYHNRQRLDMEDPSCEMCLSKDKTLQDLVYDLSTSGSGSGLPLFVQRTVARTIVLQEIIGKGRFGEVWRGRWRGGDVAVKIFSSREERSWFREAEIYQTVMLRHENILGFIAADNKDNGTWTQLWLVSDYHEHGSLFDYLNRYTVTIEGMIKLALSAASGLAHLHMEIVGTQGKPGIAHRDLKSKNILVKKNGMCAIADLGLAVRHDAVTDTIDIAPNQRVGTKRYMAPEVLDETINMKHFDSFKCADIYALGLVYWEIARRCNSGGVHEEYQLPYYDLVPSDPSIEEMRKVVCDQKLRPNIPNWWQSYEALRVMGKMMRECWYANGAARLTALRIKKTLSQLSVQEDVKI", "outline": "as §1"}, "[23]": {"molecular_target": "T23, MST3 (Homo sapiens, UniProt Q9Y6E0)", "T23 construct": "purchased Invitrogen / ThermoFisher SelectScreen", "outline": "as §1"}, "[24]": {"molecular_target": "T24, NEK6 (Homo sapiens, UniProt Q9HC98)", "T24 construct": "purchased Invitrogen / ThermoFisher SelectScreen", "T24 sequence (Q9HC98 whole entry)": "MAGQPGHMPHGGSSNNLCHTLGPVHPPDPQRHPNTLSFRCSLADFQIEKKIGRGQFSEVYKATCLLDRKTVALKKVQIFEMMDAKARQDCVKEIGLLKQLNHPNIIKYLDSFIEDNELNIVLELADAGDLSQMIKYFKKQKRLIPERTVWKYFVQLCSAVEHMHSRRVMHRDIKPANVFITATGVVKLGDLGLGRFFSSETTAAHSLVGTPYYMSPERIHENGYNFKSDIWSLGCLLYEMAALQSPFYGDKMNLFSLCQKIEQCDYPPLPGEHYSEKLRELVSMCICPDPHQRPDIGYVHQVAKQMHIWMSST", "outline": "as §1"}, "[25]": {"molecular_target": "T25, EGFR (Homo sapiens, UniProt P00533)", "T25 construct": "purchased Invitrogen / ThermoFisher SelectScreen", "outline": "as §1"}, "[26]": {"molecular_target": "T26, MELK (Homo sapiens, UniProt Q14680)", "T26 construct": "purchased Invitrogen / ThermoFisher SelectScreen", "outline": "as §1"}, "[27]": {"molecular_target": "T27, CHK1 (Homo sapiens, UniProt O14757)", "T27 construct": "purchased Invitrogen / ThermoFisher SelectScreen", "outline": "as §1"}, "[28]": {"molecular_target": "T28, DCAMKL2 (Homo sapiens, UniProt Q8N568)", "T28 construct": "purchased Invitrogen / ThermoFisher SelectScreen", "outline": "as §1"}, "[29]": {"molecular_target": "T29, MLK1 (Homo sapiens, UniProt P80192)", "T29 construct": "purchased Invitrogen / ThermoFisher SelectScreen", "T29 sequence (P80192 whole entry)": "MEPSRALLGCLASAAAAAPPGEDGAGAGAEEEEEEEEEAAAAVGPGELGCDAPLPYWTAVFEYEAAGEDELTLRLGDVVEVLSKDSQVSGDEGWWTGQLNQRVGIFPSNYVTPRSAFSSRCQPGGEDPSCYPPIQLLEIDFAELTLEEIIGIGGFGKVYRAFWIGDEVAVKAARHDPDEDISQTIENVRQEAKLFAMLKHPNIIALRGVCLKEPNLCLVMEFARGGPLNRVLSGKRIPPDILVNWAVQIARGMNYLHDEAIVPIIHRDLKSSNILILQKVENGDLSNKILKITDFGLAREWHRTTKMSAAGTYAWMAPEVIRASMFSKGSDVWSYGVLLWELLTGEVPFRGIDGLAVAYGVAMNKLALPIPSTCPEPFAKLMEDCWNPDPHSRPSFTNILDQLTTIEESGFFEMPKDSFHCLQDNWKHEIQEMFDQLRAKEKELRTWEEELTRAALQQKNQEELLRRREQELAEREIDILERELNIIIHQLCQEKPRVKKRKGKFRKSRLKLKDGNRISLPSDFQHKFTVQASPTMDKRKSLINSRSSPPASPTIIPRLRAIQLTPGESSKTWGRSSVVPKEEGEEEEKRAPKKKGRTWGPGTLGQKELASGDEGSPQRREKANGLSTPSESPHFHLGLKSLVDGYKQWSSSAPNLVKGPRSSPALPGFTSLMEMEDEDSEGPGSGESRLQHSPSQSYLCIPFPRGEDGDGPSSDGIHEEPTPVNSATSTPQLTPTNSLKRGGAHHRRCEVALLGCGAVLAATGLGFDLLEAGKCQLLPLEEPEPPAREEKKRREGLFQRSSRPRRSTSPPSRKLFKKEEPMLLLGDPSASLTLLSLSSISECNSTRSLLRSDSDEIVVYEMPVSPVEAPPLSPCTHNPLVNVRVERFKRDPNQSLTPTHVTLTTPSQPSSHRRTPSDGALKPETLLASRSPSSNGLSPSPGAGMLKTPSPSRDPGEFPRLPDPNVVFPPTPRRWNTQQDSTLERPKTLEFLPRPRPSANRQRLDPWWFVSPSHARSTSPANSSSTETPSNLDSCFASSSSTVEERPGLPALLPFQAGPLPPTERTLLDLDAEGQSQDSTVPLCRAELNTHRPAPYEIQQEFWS", "outline": "as §1"}, "[30]": {"molecular_target": "T30, MST1 (Homo sapiens, UniProt Q13043)", "T30 construct": "purchased Invitrogen / ThermoFisher SelectScreen", "outline": "as §1"}, "[31]": {"molecular_target": "T31, PDK1 (Homo sapiens, UniProt O15530)", "T31 construct": "purchased Invitrogen / ThermoFisher SelectScreen", "outline": "as §1"}, "[32]": {"molecular_target": "T32, PKD1 (Homo sapiens, UniProt Q15139)", "T32 construct": "purchased Invitrogen / ThermoFisher SelectScreen", "T32 sequence (Q15139 whole entry)": "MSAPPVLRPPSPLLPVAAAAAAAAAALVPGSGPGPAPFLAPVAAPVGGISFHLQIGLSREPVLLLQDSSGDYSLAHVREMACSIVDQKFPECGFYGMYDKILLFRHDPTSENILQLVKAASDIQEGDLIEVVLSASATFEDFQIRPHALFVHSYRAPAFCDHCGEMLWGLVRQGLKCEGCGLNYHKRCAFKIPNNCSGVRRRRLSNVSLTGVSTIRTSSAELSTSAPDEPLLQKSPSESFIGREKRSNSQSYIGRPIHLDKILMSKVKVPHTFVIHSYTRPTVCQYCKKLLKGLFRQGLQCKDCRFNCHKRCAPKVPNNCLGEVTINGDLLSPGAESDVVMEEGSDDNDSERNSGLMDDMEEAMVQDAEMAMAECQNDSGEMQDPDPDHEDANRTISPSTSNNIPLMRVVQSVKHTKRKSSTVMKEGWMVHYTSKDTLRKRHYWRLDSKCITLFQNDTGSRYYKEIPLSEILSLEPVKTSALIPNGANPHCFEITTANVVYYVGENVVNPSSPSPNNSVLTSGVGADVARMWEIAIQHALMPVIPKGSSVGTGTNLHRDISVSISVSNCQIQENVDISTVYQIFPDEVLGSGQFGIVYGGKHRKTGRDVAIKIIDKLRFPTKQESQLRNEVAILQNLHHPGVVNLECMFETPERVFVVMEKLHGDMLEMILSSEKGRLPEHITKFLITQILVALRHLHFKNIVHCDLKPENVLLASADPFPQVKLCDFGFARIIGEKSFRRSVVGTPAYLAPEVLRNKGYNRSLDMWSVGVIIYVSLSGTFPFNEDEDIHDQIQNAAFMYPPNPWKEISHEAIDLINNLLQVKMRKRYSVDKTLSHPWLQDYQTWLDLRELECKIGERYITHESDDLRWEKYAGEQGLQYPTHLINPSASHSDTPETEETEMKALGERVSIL", "conditions": "NIK SMI1 1 µM; ATP Km app", "outline": "as §1"}}}
{"compound": "COc1cc(C(N)=O)nc(-c2cccc(C#C[C@]3(O)CCN(C)C3=O)c2)c1", "note": "[NIK SMI1]", "values": [{"measurement": "inhibition at 1 µM", "setting": "[1]", "result": 2.5, "unit": "%"}, {"measurement": "inhibition at 1 µM", "setting": "[2]", "result": -10.5, "unit": "%"}, {"measurement": "inhibition at 1 µM", "setting": "[3]", "result": 15, "unit": "%"}, {"measurement": "inhibition at 1 µM", "setting": "[4]", "result": 34.5, "unit": "%"}, {"measurement": "inhibition at 1 µM", "setting": "[5]", "result": 17.5, "unit": "%"}, {"measurement": "inhibition at 1 µM", "setting": "[6]", "result": -5, "unit": "%"}, {"measurement": "inhibition at 1 µM", "setting": "[7]", "result": 5.5, "unit": "%"}, {"measurement": "inhibition at 1 µM", "setting": "[8]", "result": -3.5, "unit": "%"}, {"measurement": "inhibition at 1 µM", "setting": "[9]", "result": 2, "unit": "%"}, {"measurement": "inhibition at 1 µM", "setting": "[10]", "result": 13.5, "unit": "%"}, {"measurement": "inhibition at 1 µM", "setting": "[11]", "result": 3.1, "unit": "%"}, {"measurement": "inhibition at 1 µM", "setting": "[12]", "result": 8.5, "unit": "%"}, {"measurement": "inhibition at 1 µM", "setting": "[13]", "result": -0.5, "unit": "%"}, {"measurement": "inhibition at 1 µM", "setting": "[14]", "result": 4, "unit": "%"}, {"measurement": "inhibition at 1 µM", "setting": "[15]", "result": 3, "unit": "%"}, {"measurement": "inhibition at 1 µM", "setting": "[16]", "result": 7, "unit": "%"}, {"measurement": "inhibition at 1 µM", "setting": "[17]", "result": 7, "unit": "%"}, {"measurement": "inhibition at 1 µM", "setting": "[18]", "result": 4.5, "unit": "%"}, {"measurement": "inhibition at 1 µM", "setting": "[19]", "result": 9, "unit": "%"}, {"measurement": "inhibition at 1 µM", "setting": "[20]", "result": 17.5, "unit": "%"}, {"measurement": "inhibition at 1 µM", "setting": "[21]", "result": 2, "unit": "%"}, {"measurement": "inhibition at 1 µM", "setting": "[22]", "result": 2, "unit": "%"}, {"measurement": "inhibition at 1 µM", "setting": "[23]", "result": 32.5, "unit": "%"}, {"measurement": "inhibition at 1 µM", "setting": "[24]", "result": 17, "unit": "%"}, {"measurement": "inhibition at 1 µM", "setting": "[25]", "result": -11.5, "unit": "%"}, {"measurement": "inhibition at 1 µM", "setting": "[26]", "result": 26.5, "unit": "%"}, {"measurement": "inhibition at 1 µM", "setting": "[27]", "result": 14, "unit": "%"}, {"measurement": "inhibition at 1 µM", "setting": "[28]", "result": 6.5, "unit": "%"}, {"measurement": "inhibition at 1 µM", "setting": "[29]", "result": -1, "unit": "%"}, {"measurement": "inhibition at 1 µM", "setting": "[30]", "result": 11.5, "unit": "%"}, {"measurement": "inhibition at 1 µM", "setting": "[31]", "result": -0.5, "unit": "%"}, {"measurement": "% Inhibition", "setting": "[32]", "result": 79, "unit": "%"}, {"measurement": "inhibition at 1 µM", "setting": "[32]", "result": "> 75", "unit": "%"}]}
